Experimental findings from patent publication US6344458B1, “Piperazine ethylamide derivatives” (American Home Products Corporation, priority 1998, dated 2002) are described below.

Where a name gives a salt, the structure may show the parent alone.

In series [1] the target is T1, human 5HT1A receptor (Homo sapiens, UniProt P08908).
T1 construct: expressed in transfected cells; host or cells: CHO cells (stably transfected)
T1 sequence (P08908 1-422): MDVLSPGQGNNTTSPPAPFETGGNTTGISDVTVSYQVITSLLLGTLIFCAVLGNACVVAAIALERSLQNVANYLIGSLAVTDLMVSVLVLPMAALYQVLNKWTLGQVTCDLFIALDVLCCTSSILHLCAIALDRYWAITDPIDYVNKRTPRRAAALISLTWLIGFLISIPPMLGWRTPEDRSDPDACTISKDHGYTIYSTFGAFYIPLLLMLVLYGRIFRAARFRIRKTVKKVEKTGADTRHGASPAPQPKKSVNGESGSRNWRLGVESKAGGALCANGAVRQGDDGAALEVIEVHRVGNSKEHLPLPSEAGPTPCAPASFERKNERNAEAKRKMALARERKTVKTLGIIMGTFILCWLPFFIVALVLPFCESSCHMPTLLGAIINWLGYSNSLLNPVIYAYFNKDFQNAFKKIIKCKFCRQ
Kind of series: 5-HT1A Receptor Binding Assay ([3H] 8-OH-DPAT displacement). Particulars: displacement of [3H] 8-OH-DPAT, CHO cells stably transfected with human 5HT1A receptor. The method, then: 5-HT1A Receptor Binding Assay
High affinity for the serotonin 5-HT1A receptor was established by testing a compound's ability to displace [^3H] 8-OH-DPAT binding in CHO cells stably transfected with the human 5HT1A receptor. Stably transfected CHO cells are grown in DMEM containing 10% heat inactivated FBS and non-essential amino acids. Cells are scraped off the plate, transferred to centrifuge tubes, and washed twice by centrifugation (2000 rpm for 10 min., 4° C.) in buffer (50 mM Tris pH 7.5). The resulting pellets are aliquoted and placed at −80° C. On the day of assay, the cells are thawed on ice and resuspended in buffer. The binding assay is performed in a 96 well microtiter plate in a total volume of 250 μL. Non-specific binding is determined in the presence of […] 5-HT, final ligand concentration is 1.5 nM. Following a 30 minute incubation at room temperature, the reaction is terminated by the addition of ice cold buffer and rapid filtration through a GF/B filter presoaked for 30 minutes in 0.5% PEI. Compounds are initially tested in a single point assay to determine percent inhibition at […], and Ki values are determined for the active compounds.
In general terms: Loss of bound radioactivity is the signal in a displacement assay; it reports binding, not function.

The target in series [2] is T1, human 5HT1A receptor. The series can be described thus: 5-HT1A Receptor Intrinsic Activity Assay (reversal of forskolin-stimulated cAMP). It is filed as cell-based. Particulars: for Emax: agonist activity, cAMP, forskolin-stimulated CHO cells with human 5-HT1A receptor. The method, then: 5-HT1A Receptor Intrinsic Activity Assay
The intrinsic activity of compounds of the present invention was established by testing the claimed compounds ability to reverse the stimulation of cyclic adenosinemonophosphate (cAMP) in CHO cells stably transfected with the human 5-HT1A receptor.
Stably transfected CHO cells were grown in DMEM containing 10% heat inactivated FBS and non-essential amino acids. The cells are plated at a density of […] per well in a 24 well plate and incubated for 2 days in a CO2 incubator. On the second day, the media is replaced with 0.5 mL treatment buffer (DMEM+25 mM HEPES, 5 mM theophylline, 10 μM pargyline) and incubated for 10 minutes at 37° C. Wells are treated with forskolin (1 μM final concentration) followed immediately by the test compound (0.1 and 1 μM for initial screen) and incubated for an additional 10 minutes at 37° C. The reaction is terminated by removal of the media and addition of 0.5 mL ice cold assay buffer (supplied in the RIA kit). Plates are stored at −20° C. prior to assessment of cAMP formation by RIA. EC50 values are determined for the active test compounds. Compounds shown to have no agonist activities (Emax=0%) are further analyzed for their ability to reverse agonist induced activity. In separate experiments, 6 concentrations of antagonist are preincubated for 20 minutes prior to the addition of agonist and forskolin. Cells are harvested as described above. The cAMP kit is supplied by Amersham and the RIA is performed as per kit instructions, and calculations of IC50 performed by GraphPad Prism.

The term melting point denotes the temperature, or range, at which the solid turns liquid. Molecule `COc1ccccc1N1CCN(CCN(Cc2ccccc2)C(=O)C2CCCCC2)CC1` (as salt: fumarate) [Compound 2, Cyclohexanecarboxylic acid benzyl-{2-[4-(2-methoxy-phenyl)-piperazin-1-yl]-ethyl}-amide] gave a melting point of 144 to 146 °C.
In the case of `COc1ccccc1N1CCN(CCN(Cc2cccc3ccccc23)C(=O)C2CCCCC2)CC1` (as salt: fumarate) [Compound 4, Cyclohexanecarboxylic acid{2-[4-(2-methoxy-phenyl)-piperazin-1-yl]-ethyl}-naphthalen-1-ylmethl-amide], the melting point was 204 to 206 °C.
In the case of `COc1ccccc1N1CCN(CCN(CCCc2ccccc2)C(=O)C2CCCCC2)CC1` (as salt: fumarate) [Compound 8, Cyclohexanecarboxylic acid-{2-[4-(2-methoxy-phenyl)-piperazin-1-yl]-ethyl}-(3-phenyl-propyl)-amide], the melting point lay in the range of 103 to 105 °C.
Regarding `COc1ccccc1N1CCN(CCNC(=O)c2ccccc2)CC1` (as salt: fumaric acid salt) [Compound 1, N-{2-[4-(2-Methoxy-phenyl)-piperazin-1-yl]-ethyl}-benzamide], the melting point was in the range of 136 to 138 °C.
Same read-out and setting: the same measure for `COc1ccccc1N1CCN(CCNC(=O)CCc2ccccc2)CC1` (as salt: fumaric acid salt) [Compound 7, N-{2-[4-(2-Methoxy-phenyl)-piperazin-1-yl]-ethyl}-3-phenyl-propionamide]: 107 to 108 °C.
As usually defined, the Ki is a measure of affinity in units of concentration, obtained from inhibition or displacement. Low readings indicate a stronger hold on the target, high ones a looser hold on the target. As a reminder, the Emax is the size of the effect at its maximum, as opposed to the concentration needed. In general, EC50 refers to the concentration at which the effect is half-maximal. With `COc1ccccc1N1CCN(CCN(Cc2ccccc2)C(=O)C2CCCCC2)CC1` [Compound 2, Cyclohexanecarboxylic acid benzyl-{2-[4-(2-methoxy-phenyl)-piperazin-1-yl]-ethyl}-amide], the Ki at human 5HT1A receptor [1] came out at 0.0018 µM. The Emax on human 5HT1A receptor [2] was 36%. Besides, the EC50 at human 5HT1A receptor [2] (agonist mode, reversal of forskolin-stimulated cAMP in CHO cells) was found to be 0.0042 µM.
`COc1ccccc1N1CCN(CCN(Cc2cccc3ccccc23)C(=O)C2CCCCC2)CC1` [Compound 4, Cyclohexanecarboxylic acid{2-[4-(2-methoxy-phenyl)-piperazin-1-yl]-ethyl}-naphthalen-1-ylmethl-amide]: affinity on human 5HT1A receptor [1] was put at a Ki of 0.026 µM. The Emax on human 5HT1A receptor [2] is 88%.
A word on the IC50: it is the concentration at which inhibition is half-maximal. In the case of `COc1ccccc1N1CCN(CCN(Cc2ccc3ccccc3c2)C(=O)C2CCCCC2)CC1` [Compound 6, Cyclohexanecarboxylic acid-{2-[4-(2-methoxy-phenyl)-piperazin-1-yl]-ethyl}-naphthalen-2-ylmethyl-amide], the Ki on human 5HT1A receptor [1] is 0.0012 µM. For the same molecule, the Emax at human 5HT1A receptor [2] came to 0%. The IC50 at human 5HT1A receptor [2] (antagonist mode, reversal of agonist induced activity, preincubated 20 minutes before agonist and forskolin) amounted to 0.024 µM.
`COc1ccccc1N1CCN(CCN(CCCc2ccccc2)C(=O)C2CCCCC2)CC1` [Compound 8, Cyclohexanecarboxylic acid-{2-[4-(2-methoxy-phenyl)-piperazin-1-yl]-ethyl}-(3-phenyl-propyl)-amide] had a Ki on human 5HT1A receptor [1] of 0.02 µM. Moreover, the Emax on human 5HT1A receptor [2] stood at 77%.
